Experiments:
[1] = system: Rimantadine-resistant M2 proton channel; design: method as in PMID 27187859; settings: cited from earlier work
A. niger [2] = assay: Minimum inhibitory concentration (CLSI); assay type: cell-based, Aspergillus niger
C. albicans [3] = assay: Minimum inhibitory concentration (CLSI); assay type: cell-based, Candida albicans
E. coli = assay: Minimum inhibitory concentration (CLSI); assay type: cell-based, Escherichia coli
B. subtilis [4] = assay: Minimum inhibitory concentration (CLSI); assay type: cell-based, Bacillus subtilis
St. aureus [5] = assay: Minimum inhibitory concentration (CLSI); assay type: cell-based, Staphylococcus aureus; settings: ATCC 29213 strain used for MIC
Description: Minimum inhibitory concentrations (MIC) were determined for the selected active strains according to the Performance Standards for Antimicrobial Susceptibility Testing (CLSI). The Staphylococcus aureus ATCC 29213 strain was used for MIC measurements. Amphotericin B, clotrimazole, vancomycin and ampicillin were used as positive control.

MCF-7 = assay: MTT assay cytotoxicity; assay type: cell-based; settings: Homo sapiens, MCF7, MCF-7 (breast cancer), 72 h
HCT-116 = assay: MTT assay cytotoxicity; assay type: cell-based; settings: Homo sapiens, HCT-116 (colon cancer), 72 h
A-549 = assay: MTT assay cytotoxicity; assay type: cell-based; settings: Homo sapiens, A549, A-549 (lung cancer), 72 h
WI38 = assay: MTT assay cytotoxicity; assay type: cell-based; settings: Homo sapiens, WI-38, WI38 (fibroblasts, normal), 72 h
A. niger [6] = assay: Agar-diffusion assay (zone of inhibition); settings: Aspergillus niger, 24 h
Description: (§1) Initial screening of antimicrobial activity was performed by using agar-diffusion assay against a number of microorganisms: fungi (Aspergillus niger INA 00760), yeast (Candida albicans CBS 8836), gram-positive bacteria (Bacillus subtilis ATCC 6633, Staphylococcus aureus ATCC 25923) and gram-negative bacteria (Escherichia coli ATCC 25922). For the bacterial strains, the agar-diffusion method on the Mueller–Hinton medium was performed using direct colony suspension, equivalent to a 0.5 McFarland standard as inoculate. For the fungal test-strains, the Sabouraud medium was used with 0.2% glucose, inoculated with direct colony suspension (10^6 CFU/100 mL). The tested compounds were applied on Petri dishes on sterile paper disks (6 mm); 100 µg/disk inhibition zones were measured after 24 h incubation at 37 °C. As a positive control, standard antibiotic disks containing 30 µg vancomycin (for B. subtilis), 10 µg gentamicin (for E. coli), and 40 µg fluconazole (for A. niger and C. albicans) were used.

C. albicans [7] = assay: Agar-diffusion assay (zone of inhibition); settings: Candida albicans, CBS8836, 24 h
Description: as §1

B. subtilis [8] = assay: Agar-diffusion assay (zone of inhibition); settings: Bacillus subtilis, ATCC6633, 24 h
Description: as §1

St. aureus [9] = assay: Agar-diffusion assay (zone of inhibition); settings: Staphylococcus aureus, ATCC25923, 24 h
Description: as §1

[10] = system: cancer or normal cell lines; assay: MTT assay cytotoxicity, summary over the cell line panel; settings: for IC50: read-out: IC50 against cancer cell lines (range over compounds and lines); for toxicity against cancer or normal cell lines: either cancer or normal cell lines
in vitro = settings: dog
Hek293t = assay: MTT assay cytotoxicity; assay type: cell-based; settings: Homo sapiens, HEK-293T, Hek293t (embryonic kidney, normal), 72 h

| Compound | IC50 (MCF-7) | IC50 (HCT-116) | IC50 (A-549) | IC50 (WI38) | melting point | further results |
| --- | --- | --- | --- | --- | --- | --- |
| CC1CCC2(CC1)SC(N)=NC2(C)C (stereo not drawn) [A, spirothiazamenthane] | – | – | – | – | – | activity against the Rimantadine-resistant M2 proton channel [1]: inactive |
| C[C@@H]1[C@H](O)[C@@H](C)/C=C/C=C/C=C/C=C/C=C/C=C/C=C/[C@H](O[C@@H]2O[C@H](C)[C@@H](O)[C@H](N)[C@@H]2O)C[C@@H]2O[C@](O)(C[C@@H](O)C[C@@H](O)[C@H](O)CC[C@@H](O)C[C@@H](O)CC(=O)O[C@H]1C)C[C@H](O)[C@H]2C(=O)O [Amphotericin B, reference compound] | – | – | – | – | – | MIK (A. niger [2]): 0.04 to 1.5 µg/mL; MIK (C. albicans [3]): 2 µg/mL |
| CC1(C)S[C@@H]2[C@H](NC(=O)[C@H](N)c3ccccc3)C(=O)N2[C@H]1C(=O)O [Ampicillin, reference compound] | – | – | – | – | – | MIK (E. coli): 2 to 8 µg/mL |
| Clc1ccccc1C(c1ccccc1)(c1ccccc1)n1ccnc1 [Clotrimazole, reference compound] | – | – | – | – | – | MIK (C. albicans [3]): 4 µg/mL |
| O=[N+]([O-])C1=NOC2(CCCCCCC2)C1 [Compound 1, 3-Nitro-1-oxa-2-azaspiro[4.7]dodec-2-ene] | 58.8 ± 5 µM | 20.8 ± 5 µM | 57.1 ± 7 µM | 42.2 ± 13 µM | 55 to 57 °C | MIK (A. niger [2]): 8 µg/mL; MIK (C. albicans [3]): 8 µg/mL; MIK (B. subtilis [4]): 32 µg/mL; MIK (St. aureus [5]): 32 µg/mL; MIK (E. coli): > 256 µg/mL; zone of inhibition at 100 µg/disc (A. niger [6]): 15 mm; zone of inhibition at 100 µg/disc (C. albicans [7]): 24 mm; zone of inhibition at 100 µg/disc (B. subtilis [8]): 12 mm; zone of inhibition at 100 µg/disc (St. aureus [9]): 15 mm; IC50 [10]: 17.7 to 58.8 µM |
| O=[N+]([O-])C1=NOC2CCCCCCC12 (stereo not drawn) [Compound 2, 3-Nitro-3a,4,5,6,7,8,9,9a-octahydrocycloocta[d]isoxazole] | 35.4 ± 4.5 µM | 17.7 ± 5 µM | 40.4 ± 2.5 µM | 27.4 ± 4 µM | 52 to 53 °C | MIK (A. niger [2]): 16 µg/mL; MIK (C. albicans [3]): 32 µg/mL; MIK (B. subtilis [4]): 32 µg/mL; MIK (St. aureus [5]): 8 to 16 µg/mL; MIK (E. coli): > 256 µg/mL; zone of inhibition at 100 µg/disc (A. niger [6]): 15 mm; zone of inhibition at 100 µg/disc (C. albicans [7]): 19 mm; zone of inhibition at 100 µg/disc (B. subtilis [8]): 16 mm; zone of inhibition at 100 µg/disc (St. aureus [9]): 25 mm; IC50 [10]: 17.7 to 58.8 µM |
| NC1=NOC2(CCCCCCC2)C1 [Compound 3, 1-Oxa-2-azaspiro[4.7]dodec-2-en-3-amine] | > 150 µM | > 500 µM | > 150 µM | > 150 µM | – | CC50 (in vitro): > 550 µM; toxicity against cancer or normal cell lines [10]: not toxic |
| NC1=NOC2CCCCCCC12 (stereo not drawn) [Compound 4, 3a,4,5,6,7,8,9,9a-Octahydrocycloocta[d]isoxazol-3-amine] | > 150 µM | > 500 µM | > 150 µM | > 150 µM | – | CC50 (in vitro): > 1790 µM; toxicity against cancer or normal cell lines [10]: not toxic |
| CS(=O)(=O)NC1=NOC2(CCCCCCC2)C1 [Compound 5a, N-(1-Oxa-2-azaspiro[4.7]dodec-2-en-3-yl)methanesulfonamide] | – | – | – | – | 110 to 111 °C | – |
| O=S(=O)(Cc1ccccc1)NC1=NOC2(CCCCCCC2)C1 [Compound 5b, N-(1-Oxa-2-azaspiro[4.7]dodec-2-en-3-yl)-1-phenylmethanesulfonamide] | 138 ± 25 µM | > 200 µM | – | > 500 µM | 68 to 70 °C | – |
| O=S(=O)(NC1=NOC2(CCCCCCC2)C1)c1ccccc1 [Compound 5c, N-(1-Oxa-2-azaspiro[4.7]dodec-2-en-3-yl)benzenesulfonamide] | 116 ± 30 µM | 63 ± 18 µM | 163 µM | 113 µM | 156 to 157 °C | – |
| Cc1ccc(S(=O)(=O)NC2=NOC3(CCCCCCC3)C2)cc1 [Compound 5d, 4-Methyl-N-(1-oxa-2-azaspiro[4.7]dodec-2-en-3-yl)benzenesulfonamide] | 94 ± 30 µM | – | 143 ± 50 µM | 54.6 ± 7 µM | 122 to 124 °C | – |
| Cc1cc(C)c(S(=O)(=O)NC2=NOC3(CCCCCCC3)C2)c(C)c1 [Compound 5e, 2,4,6-Trimethyl-N-(1-oxa-2-azaspiro[4.7]dodec-2-en-3-yl)benzenesulfonamide] | 79 ± 36 µM | 70.1 ± 11.2 µM | 61 ± 21 µM | 95.5 ± 14.3 µM | 135 to 136 °C | – |
| O=S(=O)(NC1=NOC2(CCCCCCC2)C1)c1ccc2c(c1)OCCO2 [Compound 5f, N-(1-Oxa-2-azaspiro[4.7]dodec-2-en-3-yl)-2,3-dihydrobenzo[b][1,4]dioxine-6-sulfonamide] | 64.1 ± 8 µM | 23.6 ± 4.5 µM | 119 µM | 42 ± 8.6 µM | 192 to 194 °C | – |
| CC(=O)Nc1ccc(S(=O)(=O)NC2=NOC3(CCCCCCC3)C2)cc1 [Compound 5g, N-(4-(N-1-Oxa-2-azaspiro[4.7]dodec-2-en-3-ylsulfamoyl)phenyl)acetamide] | 54.5 ± 15 µM | 41.3 ± 17 µM | 54 ± 14 µM | – | 171 to 173 °C (dec.) | IC50 (Hek293t): 30.4 ± 14.5 µM; IC50 [10]: 17.7 to 58.8 µM |
| O=S(=O)(NC1=NOC2(CCCCCCC2)C1)c1ccc(F)cc1F [Compound 5h, 2,4-Difluoro-N-(1-oxa-2-azaspiro[4.7]dodec-2-en-3-yl)benzenesulfonamide] | 94.7 ± 15.5 µM | 97.1 ± 34 µM | 77.1 ± 10.2 µM | – | 118 to 119 °C | IC50 (Hek293t): 60 ± 17 µM |
| O=[N+]([O-])c1ccccc1S(=O)(=O)NC1=NOC2(CCCCCCC2)C1 [Compound 5i, 2-Nitro-N-(1-oxa-2-azaspiro[4.7]dodec-2-en-3-yl)benzenesulfonamide] | – | – | – | – | 164 to 165 °C | – |
| O=S(=O)(NC1=NOC2(CCCCCCC2)C1)c1ccc2ccccc2c1 [Compound 5j, N-(1-Oxa-2-azaspiro[4.7]dodec-2-en-3-yl)naphthalene-2-sulfonamide] | 26.8 ± 3.5 µM | 19 ± 3 µM | 27.5 ± 4.2 µM | – | 143 to 145 °C | IC50 (Hek293t): 23.1 ± 6.5 µM; IC50 [10]: 17.7 to 58.8 µM |
| O=S(=O)(NC1=NOC2(CCCCCCC2)C1)c1cccs1 [Compound 5k, N -(1-Oxa-2-azaspiro[4.7]dodec-2-en-3-yl)thiophene-2-sulfonamide] | > 150 µM | 131 ± 80 µM | 111 ± 20 µM | – | 149 to 151 °C | IC50 (Hek293t): 65.5 ± 13.5 µM |
| O=S(=O)(NC1=NOC2(CCCCCCC2)C1)c1cccnc1 [Compound 5l, N -(1-Oxa-2-azaspiro[4.7]dodec-2-en-3-yl)pyridine-3-sulfonamide] | > 150 µM | 133 ± 68 µM | > 150 µM | – | 145 to 146 °C | IC50 (Hek293t): > 500 µM |
| CC(N)C12CC3CC(CC(C3)C1)C2 (stereo not drawn) [Rimantadine, reference compound] | – | – | – | – | – | CC50 (in vitro): 406 ± 26 µM |
| CN[C@H](CC(C)C)C(=O)N[C@H]1C(=O)N[C@@H](CC(N)=O)C(=O)N[C@H]2C(=O)N[C@H]3C(=O)N[C@H](C(=O)N[C@H](C(=O)O)c4cc(O)cc(O)c4-c4cc3ccc4O)[C@H](O)c3ccc(c(Cl)c3)Oc3cc2cc(c3O[C@@H]2O[C@H](CO)[C@@H](O)[C@H](O)[C@H]2O[C@H]2C[C@](C)(N)[C@H](O)[C@H](C)O2)Oc2ccc(cc2Cl)[C@H]1O [Vancomycin, reference compound] | – | – | – | – | – | MIK (B. subtilis [4]): 0.25 to 1 µg/mL; MIK (St. aureus [5]): 0.5 to 2 µg/mL |

From PMC9182378, “Bicyclic Isoxazoline Derivatives: Synthesis and Evaluation of Biological Activity” (Molecules, 2022)
